Experimental findings from ChEMBL document CHEMBL4808223, “Design, synthesis and biological activity of bis-sulfonyl-BODIPY probes for tumor cell imaging” (Bioorg Med Chem Lett, 2021) are described below.

pIC50: −log10 of the molar value.

A short description of data set [1]: Drug uptake in human HeLa cells assessed as increase in fluorescence intensity at 10 uM incubated for 24 hrs by DAPI staining based confocal microscopic analysis. Type of data set: ADME, cell-based.
The next data set deals with HCT-116. Briefly: Cytotoxicity against human HCT-116 cells by MTT assay. Type of data set: functional, cell-based. (In general: Tetrazolium dyes change colour on reduction, which living cells bring about.)
Data set [2] deals with HeLa. Briefly: Cytotoxicity against human HeLa cells by MTT assay. The data set is classed as functional, cell-based.
A further data set relates to L02. The data set is described as follows: Cytotoxicity against human L02 cells by MTT assay. Type of data set: cell-based.
Data set [3] is described as follows: Drug uptake in tumor of mouse xenografted with human HeLa cells administered intraperitoneally and measured after 30 mins by fluorescence imaging analysis. The data set is classed as ADME, tissue-based, Neoplasm. To be noted: in vivo, ip, 0.5 h. Background: In xenograft studies the graft and the host belong to different species.
In data set [4] the test system is HeLa. Briefly: Induction of apoptosis in human HeLa cells assessed as early apoptotic cells measured after 12 hrs by Annexin-V-FITC/propidium iodide staining based flow cytometry. The data set is classed as functional. For orientation: A flow cytometer gives signals particle by particle.
The subject of data set [5] is HeLa. Briefly: Induction of apoptosis in human HeLa cells assessed as late apoptotic cells measured after 12 hrs by Annexin-V-FITC/propidium iodide staining based flow cytometry. The data set is classed as functional.
Data set [6] concerns HeLa. The data set is described as follows: Induction of apoptosis in human HeLa cells assessed as necrotic cells measured after 12 hrs by Annexin-V-FITC/propidium iodide staining based flow cytometry. The data set is classed as functional.
Data set [7] has as its system HeLa. Briefly: Induction of apoptosis in human HeLa cells assessed as viable cells measured after 12 hrs by Annexin-V-FITC/propidium iodide staining based flow cytometry. Type of data set: functional.

Broadly, the pIC50 is −log10 of the IC50, conventionally taken in molar units. Higher therefore signals a small IC50.

With `CCC1=C(C)C2=C(c3ccccc3)c3ccc(NCCN)n3[B-](F)(F)[N+]2=C1C`, in data set [1], the Drug uptake result was “Active”.
In the case of `CCC1=C(C)C2=C(c3ccccc3)c3ccc(NCCNCC(=O)c4ccc(OS(C)(=O)=O)cc4OS(C)(=O)=O)n3[B-](F)(F)[N+]2=C1C`, the pIC50 in the data set on HCT-116 is 3.99; in the data set with HeLa [2], 4.02; in the data set with L02, 4.38. In addition, the Drug uptake result in data set [1] is “Active”.
Consider `CCC1=C(C)C2=C(c3ccccc3)c3ccc(NCCNCC(=O)c4ccc(OS(=O)(=O)c5ccccc5)cc4OS(=O)(=O)c4ccccc4)n3[B-](F)(F)[N+]2=C1C`, for which the values for the pIC50 with HCT-116, in the data set with HeLa [2] and with L02 were 4.03, 4.05 and 4.27, respectively. Further, the Drug uptake result in data set [1] and in [3] was “Active” each time. In addition, the Activity is on record as 0.24% with HeLa [4], 2.46% in the data set with HeLa [5], 0.91% in the data set with HeLa [6] and 96.38% in the data set with HeLa [7].
